In US20150024008A1, “Methods and Compositions Involving Induced Senescent Cells for Cancer Treatment” (THE UNIVERSITY OF CHICAGO, priority 2011, published 2015):

Legend:
B16 melanoma cells = assay: RT-qPCR of SASP cytokines in B16 cells treated in vitro; assay type: cell-based, mouse; settings: veliparib+IR
Protocol: (§1) Slides were deparaffinized in xylene and hydrated with alcohol before being placed in 0.3% H2O2/methanol blocking solution to quench endogenous peroxidase activity followed by subsequent antigen unmasking in EDTA buffer. […] Reactions were developed with 3,3′-diaminobenzidine chromogen or Vulcan Red, respectively, and counterstained with hematoxylin. Negative controls were obtained by using isotype-matched primary antibody IgG. The SA-βGal assay was performed using the Senescence Beta-galactosidase Staining Kit (Cell Signaling) (Dunn 2006). All images were captured using Zeiss Axiovert 200M and Zeiss Axiocam color digital camera controlled by OpenLab software with a 20× objective. All primers sequence and running protocols for RT-PCR can be found in reference Table 2 (Lugade 2008, Zhang 2008).
(§2) B16SIY cells were maintained in a full medium supplemented with 10% FCS. The cells were pretreated with 10 μm veliparib then exposed to 6 or 12 Gy x-ray or IR alone (Gammacell 1000; MDS Nordion, Kanata, Ontario, Canada), then cocultured with immature BM-DC in a transwell system. 3 days later BM-DC were collected and analyzed by FACS for cell surface maturation marker and intracellular cytokines. These BM-DC were used to stimulate sorted CD4+ cells (Lugade 2008, Zhang 2008).

[1] = system: TUBO murine mammary tumor cells; assay: Senescence, SASP expression and ATP release of TUBO cells in low or high glucose media; assay type: cell-based, mouse
Protocol: as §1

[2] = system: B16SIY murine melanoma tumors; assay: H/E and SA-βGal staining of treated B16 tumors; assay type: in vivo, mouse; settings: veliparib+IR vs IR or veliparib alone; 7 days after IR
Protocol: (§3) Mouse melanoma cell line B16SIY (5×10^5 cells) were implanted subcutaneously in the flank of 6 to 8-wk-old C57/B6 mice. Tumors were allowed to grow until they reached a volume of about 100 to 150 mm^3 (approximately 2 wk) before treatment with PARP inhibitor veliparib (vrib, (R)-2-(2-methylpyrrolidin-2-yl)-1H-benzo[d]imidazole-4-carboxamide, ABT-888) and/or IR (Dunn 2006). Mice received 0.5 mg of veliparib in water twice daily by oral gavage as indicated. CD8^+, CD4^+, NK cells were depleted by anti-CD8 or anti-CD4 or anti-NK1.1, respectively, 1 d before IR. Depletion was confirmed by checking peripheral blood samples by flow cytometry. Macrophages were depleted with liposomal clodronate starting 1 d before IR. Depletion was confirmed by checking splenocyte and tumor samples by flow cytometry (Zhang 2008). Samples were collected 2 to 7 days later, and analyzed by flow cytometry using a BD LSRII flow cytometer. Blood samples were gated in forward scatter and side scatter on smaller cells for CD8, CD4 analysis, larger cells for NK and macrophage, and the percentage of different cell types were determined (Lugade 2008, Zhang 2010).
Slides were deparaffinized in xylene and hydrated with alcohol before being placed in 0.3% H2O2/methanol blocking solution to quench endogenous peroxidase activity followed by subsequent antigen unmasking in EDTA buffer. […]

[3] = system: MCF7 Tet-On GFP-IBD human breast cancer cell line; assay: GFP-53BP1 IRIF persistence, senescence and growth in MCF7 Tet-On GFP-IBD cells; assay type: cell-based
Protocol: To examine the effect of glucose metabolism on IRIF persistence in living cells, we exploited our previously described IRIF reporter consisting of GFP fused to the 53BP1 IRIF binding domain, expressed under tetracycline-inducible control. MCF7^Tet-On GFP-IBD cells were seeded at 3×10^5 per Fluorodish (World Precision Instruments, Inc.) in high-glucose (4.5 g/L) DMEM (Invitrogen) media supplemented with 10% Tet system-approved fetal bovine serum (Clontech) and 1 μg/mL doxycycline (Sigma). Next day media was exchanged for either high-glucose (4.5 g/L) or low-glucose (1 g/L) DMEM with 10% FBS and 1 μg/mL doxycycline. […] Cells were fixed at 3 h and 24 h for IRIF imaging and at day 5 for SA-βGal staining. Images were captured on Zeiss Axiovert 200M and a Hammatsu Orca ER FireWire digital monochrome (IRIF) or Zeiss Axiocam color digital camera (SA-βGal staining) controlled by OpenLab software.
To investigate what step of glycolysis is critical for improvement of DNA repair we used set of well established glycolysis inhibitors including glucose transporter Glut1 inhibitor, HXKi, GAPHi, PKi, LDHi. […] Given that elevated glycolysis predispose tumor cells for therapeutic resistance similar experiment has been performed on IR resistant PANC02 mouse pancreatic and U87 human glioma cell lines.

[4] = system: murine pancreatic cancer cell line p1048; assay: SA-βGal staining and cytokine expression in p1048 cells; assay type: cell-based, mouse
Protocol: as §1

[5] = system: breast, prostate, melanoma and head and neck squamous cell cancer cell lines; assay: Radiation induced senescence in different human cancer cell lines; assay type: cell-based; settings: combined with radiation
B16 tumors = assay: RT-qPCR and immunohistochemistry of treated B16 tumors; assay type: in vivo, mouse
Protocol: as §3, §1

[6] = system: bone marrow dendritic cells (CD11c); assay: Coculture of DCs with senescent TRAMP-C2 cells, immunostimulation assay; settings: CD45 positive cells
Protocol: Briefly 2×10^6 of collected BM cells were resuspended in 10 ml of complete medium (CM) (RPMI, 10% FBS, pen/strep, HEPES) +20 ng/ml mouse granulocyte-macrophage colony-stimulating factor (GM-CSF). BM were transferred to uncoated plastic Petri dish. On a third day 10 ml of fresh CM+20 ng/ml GM-CSF were added. Immature dendritic cells (DC) were harvested on day 5, were suspended at 5×10^6 cells/ml in ice-cold freezing medium (CM+10 ng/ml GM-CSF+10% DMSO) and frozen for future experiments.
Assayed cells (TRAMP-C2) were plated 2.5×10^5 p100 plates and next day irradiated (6Gy) and 25 μM veliparib to obtained senescent phenotype. For TRAMP-C2 the coculture was started 6 days after cell irradiation and veliparib treatment. DCs were thawed and plated in CM+10 ng/ml GM-CSF 24 hours before they were cocultured with senescent TRAMP-C2 cells. In a day when co-culture started DCs were detached with trypsin and washed twice with phosphate buffered saline (PBS) to remove GM-CSF. Senescent TRAMP-C2 cells culture was washed with PBS and medium also changed to remove veliparib. Washed DCs and senescent cells were cocultured in fresh medium for 2-3 days.
After coculture medium was collected to harvest non-adherent cells fraction. […]
As CD45 is marker of immune cells, only CD45 positive cells were analyzed and TRAMP-C2 cells could be excluded from analysis as CD45 negative.

[7] = system: B16SIY murine melanoma cells; assay: DNA damage foci (γH2AX, 53BP1) and SA-βGal senescence in B16SIY cells in vitro; assay type: cell-based, mouse; settings: with IR
Protocol: as §1, §2

bone marrow DCs = assay: BM-DC coculture with veliparib/IR treated B16 cells; assay type: cell-based, mouse
Text: B16SIY cells were maintained in a full medium supplemented with 10% FCS. The cells were pretreated with 10 μm veliparib then exposed to 6 or 12 Gy x-ray or IR alone (Gammacell 1000; MDS Nordion, Kanata, Ontario, Canada), then cocultured with immature BM-DC in a transwell system. 3 days later BM-DC were collected and analyzed by FACS for cell surface maturation marker and intracellular cytokines. […]

[8] = veliparib+IR, 7 days after irradiation

C[C@]1(c2nc3c(C(N)=O)cccc3[nH]2)CCCN1 [veliparib, (R)-2-(2-methylpyrrolidin-2-yl)-1H-benzo[d]imidazole-4-carboxamide]
chemokine expression (CCL2, CCL3, CCL5, CXCL9, CXCL10, CXCL11) (B16 melanoma cells): upregulated
IFNβ transcription (B16 melanoma cells; 7 days after 6 Gy): increased transcription of IFNβ
IL-6 transcription (B16 melanoma cells; 7 days after 6 Gy): decreased IL-6
cell survival ([1]; IR and veliparib+IR, low glucose medium): more cells survived
senescent cell morphology and SA-βGal expression ([1]; veliparib and 12 Gy, data not shown): fail to display either the characteristic cell morphology or SA-βGal expression
IFNβ and CCL5 expression kinetics ([1]; veliparib+IR, high glucose media): only showed low level IFNβ and CCL5 at day 7
SA-βGal staining ([1]; veliparib+IR, low glucose media vs high glucose): More TUBO cells displayed enhanced senescence-associated β-galactosidase staining
extracellular ATP release ([1]; veliparib+IR, low glucose media, higher density): higher ATP was detected
IFNβ and CXCL11 expression kinetics ([1]; veliparib+IR, low glucose medium): started at day 5 through day 10
cell apoptosis ([1]; veliparib+IR, low vs high glucose medium): no increased cell apoptosis
enlarged cells and SA-βGal staining in tumors [2]: greater numbers of enlarged cells and more intense SA-βGal staining
effect on cisplatin-induced foci persistence, senescence and growth suppression ([3]; combined with cisplatin): enhances this effect
accelerated senescence ([3]; combined with irradiation): induces accelerated senescence
persistence of GFP-53BP1 foci (IRIF) ([3]; combined with irradiation): enhance radiation induced persistence of GFP-53BP1 foci
foci persistence and senescence in presence of estrogen ([3]; irradiated cells, estrogen): overcomes the activity of estrogen
growth ([3]; veliparib+6 Gy vs veliparib or radiation alone): causes growth suppression
accelerated senescence and SASP ([4]; veliparib and 12 Gy): entering accelerated senescence and displaying an altered SASP
SA-βGal staining [4, 8]: induced SA-βGal staining
cytokine expression [4, 8]: upregulation of multiple cytokines
radiation induced senescence [5]: enhances radiation induced senescence
SASP gene expression in tumors (IFNβ, IFNγ, CCL2, CCL5, CXCL9, CXCL10, CXCL11) (B16 tumors; veliparib+IR): increased expression of SASP genes
immunohistochemistry of enlarged senescent tumor cells (B16 tumors; veliparib+IR): distinct strong staining of IFNβ, CCL2, CXCL9 and CXCL10
p21 and p16 expression in tumors (B16 tumors; veliparib+IR vs IR alone, normalized to GAPDH): significantly increased expression of p21 and p16
population of CD11c positive cells ([6]; TRAMP-C2 treated with 0 Gy+25 μM veliparib): 5.2%
population of CD11c positive cells ([6]; TRAMP-C2 treated with IR (6Gy)+25 μM veliparib): 36.7%
DNA damage foci resolution (γH2AX, p53BP1) ([7]; 24 h): delayed DNA damage foci resolution
accelerated senescence (cell morphology, SA-βGal) ([7]; day 7): induced accelerated senescence
CD8+ cell proliferation stimulated by cocultured DCs (bone marrow DCs; DCs from coculture with veliparib+IR treated B16 cells): better stimulated CD8+ cell proliferation
CD11c+ cell proliferation (bone marrow DCs; coculture with B16 cells treated with veliparib+6 Gy vs untreated or irradiated cells): increased CD11c+ cell proliferation
CD11c+ cell maturation (MHC-II+, CD86+) (bone marrow DCs; coculture with veliparib+IR-treated cells vs radiation only): enhanced CD11c+ cell maturation
